According to US20200333357A1, “NOVEL TFEB PATHWAY AGONISTS FOR METABOLIC DISEASES AND AGEING” (The Board of Regents of the University of Texas System, priority 2017, published 2020):
Entries after “also recorded” stand apart in the source; their conditions may differ. Where a name gives a salt, the structure may show the parent alone.

Columns and labels:
AMPK = AMPK and ACC phosphorylation immunoblots; type: cell-based, human; conditions: HeLa cells, dose-dependent
Method: (§1) SFIGS. […] (SFIG. 4B) Representative images of GFP-TFEB HeLa cells treated with 3.3 μM AD or in combination with 5 μM FK506, 10 μM CsA or both. […] Scale bar, 20 μm. […] Scale bar, 20 μm. […] Scale bar, 20 μm. (SFIGS. 4F-G) Immunoblots of wide-type HeLa cells treated with various doses (starting from 3.3 μM with a 3-fold dilution, and right-most lane is DMSO) of AD and IKA.

TFEB = assay: GFP-TFEB nuclear translocation (high-content screen, dose-response, confocal imaging); type: cell-based, human; conditions: for effect of Compound C (AMPK inhibitor) and STO-609 (CaMKKβ inhibitor) on induced TFEB nuclear translocation: 10 μM compound C, 25 μM STO-609, 4 hr; for effect of IP3R inhibitor Xestosporin C or siIP3R1 on induced TFEB nuclear translocation: 25 μM Xesto 1 hr pretreatment, time-dependent; for effect of GPN pretreatment (lysosomal Ca2+ depletion) on induced TFEB nuclear translocation: 200 μM GPN, 30 min pretreatment; for hit status in the TFEB screen overlapping with the autophagy (GFP-LC3) screen: compounds added for 4 hr, overlap with top 30 hits of autophagy screen; for effect of RNAi-mediated MCOLN1 depletion on induced TFEB nuclear translocation: siMCOLN1; for effect of calcineurin inhibition (FK506, CsA, siPPP3CB) on TFEB activation: 5 μM FK506, 10 μM CsA or siPPP3CB
Method: GFP-TFEB HeLa cells were seeded in 384-well plates. Compounds were added for 4 hr the following day. Bafilomycin A1 (250 nM) treated cells were used as positive controls and DMSO-treated cells as negative controls. […] Images were collected using 405 nm and 488 nm laser lines with DAPI and FITC emission filters. Images were analyzed using the GE IN Cell Analyzer Workstation software. Briefly, nuclei were segmented using the Hoechst channel and the cytoplasm was segmented using the GFP channel. For each cell, the mean GFP intensity in each compartment was measured and used to calculate the nuclear to cytoplasmic (N/C) TFEB-GFP ratio. The same method as mentioned above was used to generate the top 30 compounds with highest condensed activity values and robust Z score values.
GFP-TFEB HeLa cells treated with compounds or DMSO were fixed and stained with Hoechst. Images from at least 3 different fields per sample were acquired using a 40× objective on a Zeiss confocal microscope and analyzed with ImageJ. 20-30 cells were evaluated from each image for each sample, and 3 independent experiments were performed to generate the graphed values.

NFAT = assay: Endogenous NFAT nuclear translocation; type: cell-based; conditions: high or intermediate doses
Method: as §1

HeLa cells = assay: Fura-2 Ca2+ imaging; type: cell-based, human; conditions: exposure at ~TFEB EC90
Method: HeLa cells treated with compounds or DMSO for 4 hr were loaded with Fura-2-AM (3 μM) in cell culture medium for 60 min at 37° C. Cells were washed twice then incubated in fresh medium for 30 min to allow complete de-esterification of intracellular AM esters. Imaging was performed at 37° C. with 5% CO2 on an epifluorescent microscope (Deltavision, Applied Precision) equipped with a digital monochrome Coolsnap HQ2 camera (Roper Scientific, Tucson, Ariz.). Fluorescence images were collected using SoftWoRx v3.4.5 (Universal Imaging, Downingtown, Pa.). Data were recorded at excitation/emission wavelengths of 340/510 nm (Fura-340 filter) and 387/510 nm (Fura-380 filter). The single band pass excitation filter for Fura-340 and Fura-380 is 26 nm and 11 nm, respectively, and the band pass of emission filters for Fura-340 and Fura-380 is 84 nm. Intracellular calibration of Fura-2 was accomplished by manipulating the Ca^2+ levels inside cells using the ionphore ionomycin (20 μM, Sigma-Aldrich) and by incubating cells in buffers with various Ca^2+ concentrations (calcium calibration buffer kit—Invitrogen). Intracellular fluorescence ratios were determined using ImageJ software. Images were background-corrected by subtracting the mean pixel values of a cell-free region near the region of interest. Fluorescent intensity ratio R=F340/F380, and Ca^2+ concentration can be calculated from Equation 3, where Kd can be obtained from intracellular calibration:
[Ca^2+]Kd×F380,min/F380,max×(R−Rmin)/(Rmax−R) (3)

Row | Structure (SMILES) | activating phosphorylation of AMPK and its substrate ACC (AMPK) | reversal of effect on TFEB by cell-permeable pyruvate (TFEB) | effect of Compound C (AMPK inhibitor) and STO-609 (CaMKKβ inhibitor) on induced TFEB nuclear translocation (TFEB) | effect of IP3R inhibitor Xestosporin C or siIP3R1 on induced TFEB nuclear translocation (TFEB) | effect of GPN pretreatment (lysosomal Ca2+ depletion) on induced TFEB nuclear translocation (TFEB) | effect of calcineurin perturbation on TFEB activation (TFEB; compound at EC50) | effect of calcineurin perturbation on TFEB activation (TFEB; compound at EC90) | hit status in the TFEB screen overlapping with the autophagy (GFP-LC3) screen (TFEB) | effect of RNAi-mediated MCOLN1 depletion on induced TFEB nuclear translocation (TFEB) | nuclear translocation of NFAT (NFAT) | cytosolic calcium (Fura-2) (HeLa cells) | effect of calcineurin inhibition (FK506, CsA, siPPP3CB) on TFEB activation (TFEB) | hit status in the TFEB screen overlapping with the autophagy (GFP-LC3) screen (TFEB; dihydrochloride) | effect of thapsigargin (ER Ca2+ depletion) on induced TFEB nuclear translocation (TFEB; 300 nM TG, 30 min)
1 | C[C@H]1O[C@@H](O[C@H]2[C@@H](O)C[C@H](O[C@H]3[C@@H](O)C[C@H](O[C@H]4CC[C@@]5(C)[C@H](CC[C@@H]6[C@@H]5C[C@@H](O)[C@]5(C)[C@@H](C7=CC(=O)OC7)CC[C@]65O)C4)O[C@@H]3C)O[C@@H]2C)C[C@H](O)[C@@H]1O [DG, digoxin, reference compound] | not | not | not | attenuated | sufficient to disrupt TFEB nuclear translocation | inhibited to some extent | resistant | top 18 hits; also recorded: top scoring hits | suppressed | not | induce accumulation of cytosolic calcium | – | – | –
2 | CCCCC(CC)CNC(=N)NC(=N)NCCCCCCNC(=N)NC(=N)NCC(CC)CCCC (stereo not drawn) [AD, alexidine dihydrochloride] | induced activating phosphorylation | reversed | inhibited | attenuated | sufficient to disrupt TFEB nuclear translocation | – | – | – | suppressed | induced dose-dependent nuclear translocation | induce accumulation of cytosolic calcium | block TFEB activation | top 18 hits; also recorded: top scoring hits | –
3 | CC[C@H]1[C@@H]2C=C[C@@H]3[C@H]4C/C=C\C(=O)NCCC[C@@H]5NC(=O)/C(=C(O)/C=C/[C@@H]4C[C@@H]3[C@H]2C[C@H]1C)C5=O [IKA, ikarugamycin] | induced activating phosphorylation | reversed | inhibited | attenuated | almost no effect | – | – | – | – | not | induce accumulation of cytosolic calcium | calcineurin independent | – | selectively decreased
